{"source": "patent EP0196849A2", "about": "“Aminohydroxyalkylbenzene anti-obesity and/or anti-hyperglycaemic agents” (BEECHAM GROUP PLC, priority 1985, dated 1986)", "test_system": "Female CFLP mice", "test": "Anti-hyperglycaemic activity: subcutaneous glucose load in fasted mice, area under blood glucose curve", "assay_type": "in vivo", "conditions": "24 h fasted female CFLP mice, glucose 1 g/kg s.c. 30 min after dosing, 2-hour AUC vs water controls", "experimental": "Female CFLP mice, weighing approximately 25g, were fasted for 24 hours prior to the study. The compounds under study were administered orally as an aqueous solution to each of 6 mice. Thirty minutes later a blood sample (20ul) was obtained from the tail for the analysis of blood glucose. Immediately after taking this blood sample, glucose (lg/kg body weight) was administered subcutaneously to each mouse. Six mice were given water as a control. Blood samples were then obtained from each mouse at 30 minute intervals for 120 minutes.\nCompounds that produced a significant (p<0.05) reduction of blood glucose, compared with control mice given water, at any time interval were considered active. The area under the blood glucose curve over the 2-hour period after the administration of the glucose was calculated for each compound and compared with the value for control animals.", "key": {"[1]": {"conditions": "Dose 5 µmol/kg orally as aqueous solution"}}}
{"smiles": "C[C@H](Cc1ccc(C[C@@H](C)NC[C@H](O)c2cccc(Cl)c2)cc1)NC[C@H](O)c1cccc(Cl)c1", "note": "[Example 2, (R,R,R,R)-α,α'-[1,4-Phenylenebis[(1-methyl-2,1-ethanediyl)imino]methylene]bis[3-chlorobenzenemethanol]]", "values": [{"measurement": "% Reduction in area under blood glucose curve", "setting": "Dose 25 µmol/kg orally as aqueous solution", "value": 49, "unit": "%"}]}
{"smiles": "O[C@@H](CNCCOc1ccc(OCCNC[C@H](O)c2ccccc2)cc1)c1ccccc1", "note": "[Example 3, (R,R)-a-a'-[1,4-Phenylenedioxybis [(2,1-ethanediyl)-imino]methylene] bis [benzenemethanol]]", "values": [{"measurement": "% Reduction in area under blood glucose curve", "setting": "[1]", "value": 10, "unit": "%"}]}
{"smiles": "O[C@@H](CNCCc1ccc(CCNC[C@H](O)c2ccccc2)cc1)c1ccccc1", "note": "[Example 4, (R,R)-a,a'-[1,4-Phenylenebis [(2,1-ethanediyl)imino]-methylene]bis[benzenemethanol]]", "values": [{"measurement": "% Reduction in area under blood glucose curve", "setting": "Dose 12.5 µmol/kg orally as aqueous solution", "value": 4.2, "unit": "%"}]}
{"smiles": "O[C@@H](CNCCOc1ccc(OCCNC[C@H](O)c2cccc(Cl)c2)cc1)c1cccc(Cl)c1", "note": "[Example 5, (R,R)-α,α^1-[1,4-Phenylenedioxybis[(2,1-ethanediyl)-imino]methylene]bis[3-chlorobenzenemethanol]]", "values": [{"measurement": "% Reduction in area under blood glucose curve", "setting": "Dose 2.5 µmol/kg orally as aqueous solution", "value": 30, "unit": "%"}]}
{"smiles": "O[C@@H](CNCCc1ccc(CCNC[C@H](O)c2cccc(Cl)c2)cc1)c1cccc(Cl)c1", "note": "[Example 6, (R,R)-a,a'-[1,4-Phenylenebis[(2,1-ethanediyl]imino]-methylene]bis[3-chlorobenzenemethanol]]", "values": [{"measurement": "% Reduction in area under blood glucose curve", "setting": "[1]", "value": 48, "unit": "%"}]}
